# Where “and” joins values, the source holds several entries; their conditions need not be identical. Equal entries are not always repeated. Marks after values point to notes of the source that are not given here.
# Legend:
# HCV = settings: monotherapy, fraction of cases; cited from earlier work
# neopterin = experiment: 14-day multiple-dose study: serum neopterin (ELISA)
# [1] = Multiple-dose study (Example 5): tolerability and VX-950 plasma trough levels; assay type: in vivo, human
# Method: (§1) All other 34 subjects completed the study.
# The assay for determined VX-950 concentration in human plasma was performed by methods well known in the art. See, e.g., Wasley, A. et al., Semin. Liver Dis., 20:1-16, 2000; Alter, H. J. et al., Semin. Liver Dis., 20: 17-35, 2000; Brown, R. S. Jr. et al., Liver Transpl., 9: S10-S13, 2003; DeFrancesco, R. et al., Nature, 436(7053): 953-960, 2005; Bowen, D. G. et al., J. Hepatol., 42: 408-417, 2005; Hoofnagle, J. H., Hepatology, 36: S21-S29, 2002, Brown, R. S. Jr. et al., Nature, 436 (7053): 973-978, 2005; and Chisari, F. V., Nature, 436(7053): 930-932, 2005.
# Sample Preparation: 100 μL of plasma and 100 μL of internal standard working solution (or acetonitrile for blank samples) were added to an extraction tube. After vortex mixing for 30 seconds, 500 μL of toluene was added and extraction was performed by vortex mixing for 30 seconds. After centrifugation at 3000 rpm at 4° C. for 5 minutes, the aqueous layer was frozen in a mixture of acetone and dry ice and the organic layer was transferred to another extraction tube. 50 μL of 2,2-dimethoxypropane was added and the samples were evaporated to dryness under nitrogen at approximately 30° C. The residue was re-dissolved in 300 μL of a mixture of heptane and acetone (90:10, v/v) [or a mixture of heptane and THF (80:20, v/v)] by vortex mixing for 60 seconds. […]
# [2] = human, in vivo
# Method: (§2) A dose escalation scheme was used that combined dose doubling and modified Fibonacci to be aggressive in the lower dose range and conservative in the higher dose range.
# (§3) A pharmacokinetics analysis was performed using the statistical moment approach.
# IFN-β promoter activity = experiment: IFN-β promoter luciferase activity in Sendai virus stimulated Huh7 cells expressing HCV protease; settings: 10 μM VX-950, Huh7 cells, Sendai virus stimulation, 16 hours post-infection
# [3] = test system: hepatitis C virus (HCV) replicon; experiment: HCV replicon cell assay; settings: 48 h
# [4] = test system: ALT (alanine aminotransferase); experiment: 14-day multiple-dose study: serum ALT / AST levels; assay type: in vivo, human
# From the text: The serum alanine aminotransferase (ALT) level can be measured using commercially available methods. Mean ALT levels, elevated at baseline, decreased during dosing in all groups (FIG. 6). Mean ALT levels increased, returned toward baseline, in all dose groups during follow up.
# genotype 1 hepatitis C = experiment: Phase 1b 14-day study of VX-950, VX-950/Peg-IFN-2a or Peg-IFN-2a followed by Peg-IFN-2a/RBV: HCV RNA and SVR (Example 9); settings: for patients who achieved SVR: 14 days of VX-950 (alone or in combination with PEG-IFN) then PEG-IFN with RBV
# [5] = Single-dose escalation tolerance and pharmacokinetics study in healthy male volunteers (Example 3); settings: single doses 25 mg to 1250 mg
# Method: as §2, §3
# HCV genotype 1 = experiment: 14-day multiple-dose study in Hepatitis C positive subjects: plasma HCV RNA (Example 5); assay type: in vivo, human; settings: for mean HCV RNA drop: 750 mg q8h
# Method: Detection of HCV RNA can be done, e.g., by using the Roche COBAS TaqMan HCV/HPS assay, available from Roche molecular Diagnostics. Subjects (or patients) receiving 750 mg of VX-950 every eight hours for 14 days achieved a median reduction in HCV-RNA of greater than 4 log10 (i.e., 10,000-fold decrease) at the end of the treatment. […] See Example 5 and FIGS. 3-5.
# as §1
# The HCV positive subjects were tested post-treatment to monitor HCV RNA levels' return to baseline.
# clinical = settings: male, human, in vivo, po
# Method: as §2, §3
# HCV NS3/4A protease = HCV NS3/4A protease (Hepatitis C virus genotype 1a, UniProt P27958); experiment: In vitro cleavage of TRIF by HCV NS3 protease; assay type: biochemical; settings: 10 μM VX-950, tNS3 0-4 μM
# Method: The 35S methionine labeled coupled in vitro transcription/translation product of TRIF protein (as a substrate) was incubated with increasing concentration of tNS3 protease enzyme ranging from 0-4 μM either in the presence (Circles) or absence (Squares) of 10 μM VX-950, followed by SDS-PAGE and exposure to phosphorimager.
# WT-HCV protease-SEAP = settings: SCID mice expressing WT-HCV protease-SEAP; cited from earlier work
# [6] = Predicted human liver exposure relative to replicon assay IC50/IC90; settings: in the dose range studied
# [7] = in vivo
# infectious virus = experiment: Infectious virus assay; assay type: cell-based
# [8] = at the completion of the 14-day dosing period
# [9] = of the 8 subjects receiving 750 mg q8h
# HCV NS3/4A protease, sequence (P27958 1027-1208, other chains not shown): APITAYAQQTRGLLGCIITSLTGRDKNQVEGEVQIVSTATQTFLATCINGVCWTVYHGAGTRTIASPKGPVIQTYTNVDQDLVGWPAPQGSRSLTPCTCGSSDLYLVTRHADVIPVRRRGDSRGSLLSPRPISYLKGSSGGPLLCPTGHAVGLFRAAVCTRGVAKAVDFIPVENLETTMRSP
compound,measurement,setting,value
interferon alfa,long term remission,HCV,~25%
CCC[C@H](NC(=O)[C@@H]1[C@H]2CCC[C@H]2CN1C(=O)[C@@H](NC(=O)[C@@H](NC(=O)c1cnccn1)C1CCCCC1)C(C)(C)C)C(=O)C(=O)NC1CC1 [VX-950],mean neopterin level,"neopterin; 750 mg q8h, day 14 (baseline 10.48±0.84 nmol/L; ULN 7.7)",7.32 ± 0.48 nmol/L
same,effect on neopterin levels in vivo,neopterin; 14 days dosing,decreases
same,tolerability of multiple doses,"[1]; 450 mg, 750 mg or 1250 mg, 5 or 14 days",well tolerated at all dose levels
same,trough levels of VX-950 in plasma,"[1]; about 750 mg three times a day, every 8 hours, compared with other regimens",highest trough levels
same,oral bioavailability,[2]; po,orally bioavailable
same,VX-950 eliminated unchanged in the urine,[2]; male,Less than 2%
same,effect on WT HCV protease mediated suppression of IFNβ promoter activation,IFN-β promoter activity,overcomes the WT HCVpro mediated suppression of IFNβ promoter activation
same,IC50,[3]; read-out: IC50 in the replicon assay,~0.24 µg/mL
same,IC90,[3]; read-out: IC90 in the replicon assay,~0.476 µg/mL
same,median ALT value,"[4]; 450 mg q8h, day 12, 5 out of 10 samples missing (range 25-125)",38 U/I
same,effect on ALT levels in vivo,[4]; 14 days dosing,decreases
same,effect on AST (aspartate aminotransferase) levels,[4]; upon administration,decreased
same,SVR after a 2 week treatment of VX-950,genotype 1 hepatitis C; 2 week treatment,SVR was achieved in a patient
same,HCV RNA levels at the last off-study follow-up day,"genotype 1 hepatitis C; 12 weeks after the last on-study follow-up, patients who continued with Peg-IFN-2a/RBV",undetectable in all patients
same,antiviral activity,genotype 1 hepatitis C; 14 days,rapid and profound antiviral activity
same,patients who achieved SVR,genotype 1 hepatitis C; treated for 24 weeks,7 of 10
same,patients who achieved SVR,genotype 1 hepatitis C; treated for 48 weeks,3 of 5
same,patients in whom SVR was achieved,"genotype 1 hepatitis C; 14 days of VX-950 optionally in combination with Peg-INF, followed by Peg-INF/RBV for an additional 22 or 46 weeks",10 of 15
same,"decrease of HCV RNA levels, generally",genotype 1 hepatitis C; [8],at least 2 log10
same,"decrease of HCV RNA levels, in some cases",genotype 1 hepatitis C; [8],at least 4 log10
same,patients with undetectable HCV RNA,genotype 1 hepatitis C; at week 12,5 of 7
same,patients with undetectable HCV RNA,"genotype 1 hepatitis C; at week 24, all patients who received VX-950 (alone or with PEG-IFN)",15
same,Undetectable HCV RNA at 24-week off study peg-IFN-2a/RBV treatment,genotype 1 hepatitis C; group sizes N 7 / 8 / 4,7* N
same,Undetectable HCV RNA at 12 weeks follow-up after stopping peg-IFN-2a/RBV,genotype 1 hepatitis C; patients who stopped Peg-IFN-2a/RBV at week 24,2 of 4 and 2/4
same,tolerability of single doses,[5],well tolerated at all dose levels
same,Maximum change from baseline in HCV RNA (log10 IU/mL): subjects in category >−1 to <0,HCV genotype 1; 450 mg q8h (n = 10),0 n (%)
same,Maximum change from baseline in HCV RNA (log10 IU/mL): subjects in category >−2 to ≦−1,HCV genotype 1; 450 mg q8h (n = 10),0 n (%)
same,Maximum change from baseline in HCV RNA (log10 IU/mL): subjects in category >−3 to ≦−2,HCV genotype 1; 450 mg q8h (n = 10),1 (10.0) n (%)
same,Maximum change from baseline in HCV RNA (log10 IU/mL): subjects in category >−4 to ≦−3,HCV genotype 1; 450 mg q8h (n = 10),7 (70.0) n (%)
same,Maximum change from baseline in HCV RNA (log10 IU/mL): subjects in category >−5 to ≦−4,HCV genotype 1; 450 mg q8h (n = 10),0 n (%)
same,Maximum change from baseline in HCV RNA (log10 IU/mL): subjects in category ≧−5,HCV genotype 1; 450 mg q8h (n = 10),2 (20.0) n (%)
same,median reduction in HCV-RNA,"HCV genotype 1; 750 mg every eight hours, end of 14 days",greater than 4 log10
same,Maximum change from baseline in HCV RNA (log10 IU/mL): subjects in category >−1 to <0,HCV genotype 1; 750 mg q8h (n = 8),0 n (%)
same,Maximum change from baseline in HCV RNA (log10 IU/mL): subjects in category >−2 to ≦−1,HCV genotype 1; 750 mg q8h (n = 8),0 n (%)
same,Maximum change from baseline in HCV RNA (log10 IU/mL): subjects in category >−3 to ≦−2,HCV genotype 1; 750 mg q8h (n = 8),0 n (%)
same,Maximum change from baseline in HCV RNA (log10 IU/mL): subjects in category >−4 to ≦−3,HCV genotype 1; 750 mg q8h (n = 8),3 (37.5) n (%)
same,Maximum change from baseline in HCV RNA (log10 IU/mL): subjects in category >−5 to ≦−4,HCV genotype 1; 750 mg q8h (n = 8),3 (37.5) n (%)
same,Maximum change from baseline in HCV RNA (log10 IU/mL): subjects in category ≧−5,HCV genotype 1; 750 mg q8h (n = 8),2 (25.0) n (%)
same,mean HCV RNA drop,HCV genotype 1; day 3,3.6 log10
same,mean HCV RNA drop,HCV genotype 1; day 14,4.3 log10
same,Maximum change from baseline in HCV RNA (log10 IU/mL): subjects in category >−1 to <0,HCV genotype 1; 1250 mg q12h (n = 10),0 n (%)
same,Maximum change from baseline in HCV RNA (log10 IU/mL): subjects in category >−2 to ≦−1,HCV genotype 1; 1250 mg q12h (n = 10),0 n (%)
same,Maximum change from baseline in HCV RNA (log10 IU/mL): subjects in category >−3 to ≦−2,HCV genotype 1; 1250 mg q12h (n = 10),1 (10.0) n (%)
same,Maximum change from baseline in HCV RNA (log10 IU/mL): subjects in category >−4 to ≦−3,HCV genotype 1; 1250 mg q12h (n = 10),9 (90.0) n (%)
same,Maximum change from baseline in HCV RNA (log10 IU/mL): subjects in category >−5 to ≦−4,HCV genotype 1; 1250 mg q12h (n = 10),0 n (%)
same,Maximum change from baseline in HCV RNA (log10 IU/mL): subjects in category ≧−5,HCV genotype 1; 1250 mg q12h (n = 10),0 n (%)
same,drop in viral load in every patient,"HCV genotype 1; all dose groups, during administration",at least 2 log10
same,median reduction of HCV-RNA,"HCV genotype 1; each of the other two dose groups (450 mg q8h, 1250 mg q12h), end of 14 days",greater than 2 log10
same,effect on HCV replication in humans,"HCV genotype 1; human, in vivo",effective in inhibiting HCV replication
same,subjects with HCV RNA below the limit of detection (LLD 10 IU/mL),HCV genotype 1; [9],2
same,subjects with HCV RNA below the limit of quantitation (LLQ 30 IU/mL),HCV genotype 1; [9],4
same,subjects with a 3 log10 reduction in HCV-RNA,HCV genotype 1; within the first three days of treatment,26 of the 28
same,reduction in HCV-RNA achieved by every subject,"HCV genotype 1; within the first three days of treatment, all dose groups",greater than 2 log10
same,Tmax,clinical,3 h
same,effect on in vitro cleavage of TRIF by NS3 protease,HCV NS3/4A protease,inhibits in vitro cleavage of TRIF
same,effect on elevated ALT levels in an animal model,WT-HCV protease-SEAP,ameliorates elevated ALT levels
same,predicted average liver concentration as multiple of replicon assay IC50,[6],up to 113 fold
same,predicted average liver concentration as multiple of replicon assay IC90,[6],up to 57 fold
same,tolerability,[7],well tolerated
same,IC50,infectious virus,0.196 µg/mL

# Reference: patent publication US20100189688A1, “Dose forms comprising VX-950 and their dosage regimen” (priority 2007, published 2010)
